Experimental data taken from patent US20210183467A1, “SYSTEM AND METHOD FOR USING MICROBIOME TO DE-RISK DRUG DEVELOPMENT” (YALE UNIVERSITY, priority 2018, published 2021).

Experiments:
Bacteroides ovatus = format: in vitro ADME
Protocol: Frozen stocks of bacteria (Table 4) are plated on BHI blood agar and incubated at 37° C. under anaerobic conditions. Single colonies are inoculated into 4 mL pre-reduced GMM and incubated anaerobically at 37° C. for 24 h (Akkermansia muciniphila for 48 hours). BRV conversion assays are performed with the resulting dense cultures, as described above for bacterial communities.

[1] = Oral BRV in conventional (CV) and germfree (GF) mice, drug and metabolite levels; format: in vivo, C57BL/6 mice
Protocol: Oral BRV was administered to conventional (CV) and germfree (GF) C57BL/6 mice, and BRV and BVU concentrations were measured over time along the length of the gastrointestinal tract as shown in FIG. 4C. Serum kinetics of BRV and BVU in conventional (CV) and germ-free (GF) mice were compared following oral BRV administration.
All experiments using mice are performed using protocols approved by the Yale University Institutional Animal Care and Use Committee. Germfree (GF) 8 to 12 week old C57BL/6J mice are maintained in flexible plastic gnotobiotic isolators with a 12-hour light/dark cycle and GF status monitored by PCR and culture-based methods. Conventional C57BL/6J mice (Jackson Laboratories) are purchased at the age of 6-7 weeks and kept in the lab for 2-3 weeks before experiments. All mice are provided a standard, autoclaved mouse chow (5013 LabDiet, Purina) ad libitum.
(§1) Each drug treatment is performed using 20 treated and 5 to 6 untreated animals. Both genders are equally represented in each group and evenly distributed across the different time points for sample collection. Animals (n=5 per time point and group) are given 100 mg/kg body weight of BRV or SRV as suspensions in PBS (200 μL PBS for controls) by oral gavage. One blood sample is collected from each animal at an early time point (0.5, 1, 1.5, or 2 hours after drug administration) by submandibular bleeding. At 3, 5, 7, and 9 h, mice are sacrificed and tissue samples are collected into sample tubes and snap-frozen. Fecal samples are collected before euthanization and re-suspended in PBS (1 mL) through vigorous shaking. 20 μL are then plated on BHI blood plates and incubated aerobically and anaerobically at 37° C. to check GF, GN^WT, and GN^MUT animals for contamination. Monocolonized mice are also checked for contamination by PCR using primers 7 and 8.
200 μL of 0.1 mm zirconia/silica beads (BioSpec Products) and 500 μL of organic solvent (acetonitrile:methanol, 1:1) supplemented with internal standard are added to 50-350 mg of pre-weighed solid material. Material is homogenized by mechanical disruption with a bead beater (BioSpec Products) set for 2 minutes on high setting at room temperature. After incubation for at least 1 h at −20° C., samples are centrifuged (3220 rcf, −9° C.) for 15 min. 10 μL of supernatant are diluted with 10 μL H2O for analysis by LC-MS.
Samples for LS-MS analysis are prepared as described above. Chromatographic separation is performed on a C18 Kinetex Evo column (Phenomenex, 100 mm×2.1 mm, […]) using mobile phase A: H2O, 0.1% formic acid and B: methanol, 0.1% formic acid at 45° C. 5 μL of sample are injected at 100% A and 0.4 mL/min flow followed by a linear gradient to 95% B over 5.5 min and 0.4 mL/min flow leading to thymine, BVU, SRV, and BRV elution at 0.95, 2.0, 2.15, and 2.4 min, respectively. The internal standards caffeine and sulfamethoxazole elute at 1.9 and 2.1 min, respectively. The qTOF is operated in positive scanning mode (50-1000 m/z) and the following source parameters: VCap is 3500 V; nozzle voltage is 2000 V; gas temp is 225 C; drying gas 13 L/min; nebulizer is 20 psig; sheath gas temp is 225 C; and sheath gas flow is 12 L/min. Online mass calibration is performed using a second ionization source and a constant flow (5 μL/min) of reference solution (121.0509 and 922.0098 m/z). Compounds are identified based on the retention time of chemical standards and their accurate mass (tolerance 20 ppm).

[2] = format: in vivo, C57BL/6J mice
Protocol: Germfree mice were colonized with the wildtype and mutant strains. BRV was administered.
Individually caged GF C57BL/6J mice are colonized by oral gavage with 200 μL of an overnight GMM culture of either B. thetaiotaomicron wild type or bt4554 strains to generate GN^WT or GN^MUT mice, respectively. After 4 days, bacterial loads are determined by CFU plating on BHI blood agar prior to drug treatment.
as §1

O=c1[nH]c(=O)n([C@H]2C[C@H](O)[C@@H](CO)O2)cc1/C=C/Br [BRV, Brivudine]
capacity to convert BRV to BVU (Bacteroides ovatus): highest metabolic activity | endogenous DPD substrates (thymine) in the liver ([1]; BRV-treated CV mice): accumulate endogenous DPD substrates | drug concentrations along the length of the gastrointestinal tract ([1]; CV mice, oral BRV): progressively reduced | BRV levels over time in the duodenum ([1]; CV versus GF mice, oral BRV): similar | serum BRV ([1]; CV versus GF mice, oral BRV): without a corresponding decrease | BRV levels further along the gastrointestinal tract and in feces ([1]; GF mice versus CV, oral BRV): significantly higher | absorption of BRV from the lower intestine ([2]; GN^MUT mice excrete the drug in feces): poorly absorbed | metabolism of cecal BRV by wildtype B. thetaiotaomicron ([2]; GN^WT mice): completely metabolizes | thymine in the liver ([2]; GN^WT mice after BRV administration): thymine accumulation in the liver | BRV serum kinetics ([2]; GN^WT versus GN^MUT mice): indistinguishable
